According to patent US20250017207A1 (priority 2021, published 2025):
Converted amounts (≈) assume the structure as drawn.

Columns and labels:
Assay type in all cases: cell-based
Fusarium graminearum = assay: microbe, parasite or virus in culture; conditions: 72 h, read-out: EC50 Value
Fusarium proliferatum = assay: Petri plate test, inhibition of mycelial growth (NY/T 1156.2-2006); conditions: 72 h, mycelial growth on PDA plates, 25° C., three days in darkness
Description: Certain mixture compositions according to the present invention may show a synergistic effect. This occurs whenever the action of an active ingredient combination is greater than the sum of the actions of the individual components. The combined toxicity of two agents can be evaluated by the Co-Toxicity Coefficient (CTC) according to the Sun-YP method (Yun-Pei, Sun. “Toxicity Index-An Improved Method of Comparing the Relative Toxicity of Insecticides.” Journal of Economic Entomology 1(1950):45-53.). A CTC value of less than 80 indicates an antagonistic effect, a CTC value of 80-120 indicates an additive effect, and a CTC value of greater than or equal to 120 indicates a synergistic effect.
Component A represents standard Al, and component B represents the component to be mixed with the standard Al. • ATI (Measured toxicity index of a mixture)=(Standard Al's EC50/Mixture's EC50)*100 • TTI (Theoretical toxicity index of a mixture)=(TIA*PA+TIB*PB)*100 • TIA (Toxicity index of component A)=the EC50 of component A/the EC50 of component A • PA: Percentage of component A in the mixture • TIB (Toxicity index of component B)=the EC50 of component A/the EC50 of component B • PB: Percentage of component B in the mixture […]

Gibberella fujikuroi = assay: microbe, parasite or virus in culture; conditions: Fusarium fujikuroi, 72 h, read-out: EC50 Value

CCOC(=O)/C(C#N)=C(\N)c1ccccc1 [PHM, (Z)-ethyl 2-cyano-3-amino-3-phenylacrylate]
EC50 (Fusarium graminearum): 0.0307 µg/mL (≈ 0.142 µM)
EC50 (Fusarium proliferatum): 3.08 µg/mL
EC50 (Gibberella fujikuroi): 0.197 µg/mL (≈ 0.91 µM)

O=C(N[C@@H]1CC[C@@H]1c1ccc(Cl)cc1Cl)c1cccnc1C(F)(F)F [cylcobutrifluram, N-[(1,2 cis)-2-(2,4-dichlorophenyl)cyclobutyl]-2-(trifluoromethyl)pyridine-3-carboxamide]
EC50 (Fusarium graminearum): 0.0222 µg/mL (≈ 0.057 µM)
EC50 (Fusarium proliferatum): 0.882 µg/mL
EC50 (Gibberella fujikuroi): 0.75 µg/mL (≈ 1.93 µM)
